Laboratory results taken from publication PMC5069167 (Nature chemical biology, 2016).

Target: T1, PolD (Streptomyces asoensis, UniProt C1IC31)
T1 sequence (C1IC31 1-215): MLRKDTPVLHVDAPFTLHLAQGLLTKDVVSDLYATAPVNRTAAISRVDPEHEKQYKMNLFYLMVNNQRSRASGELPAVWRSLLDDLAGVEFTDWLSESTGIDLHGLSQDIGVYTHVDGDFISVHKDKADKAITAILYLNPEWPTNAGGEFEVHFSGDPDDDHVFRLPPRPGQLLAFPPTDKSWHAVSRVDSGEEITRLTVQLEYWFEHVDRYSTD
Test: binding and oxidation of alpha-KG, succinate detection by HR-MS
Format: biochemical
Conditions: Fe(II), ascorbate 5 mM, O2, pH 7.6, 25 °C

In the case of `O=C(O)CCC(=O)C(=O)O` [α-KG], the “binding and oxidation of alpha-KG, succinate detection by HR-MS” value was “non-heme mono-iron center capable of binding and oxidizing α-KG”.
